Where two headings read alike, the source gives them in different places.
Assays:
plants [1] = assay: Toxicity to plants (phytotoxicity); conditions: at least some plants
C. elegans [2] = assay: Inhibitor studies: C. elegans cultures on NGM plates containing fatty acid methyl esters; format: in vivo; conditions: for Lifecycle impairments of C. elegans cultures: methyl ester on NGM plates with OP50 E. coli
Excerpt: Vernolic acid and ricinoleic acid are naturally occurring plant-produced fatty acid homologs that we predict to be specific inhibitors of Δ12 FAT enzymes. The addition of these compounds to living cultures of C. elegans is expected to mimic the effects of the Δ12 FAT RNAi experiments since, in each case, the phenotype observed should derive from the inhibition of the nematode Δ12 FAT. To explore this possibility, C. elegans cultures were started from eggs on NGM plates containing their E. coli food source and one of either 3 mM ricinolcic acid methyl ester or 3 mM vernolic acid methyl ester. Total eggs layed and hatch-rates of F1 and F2 individuals were followed and compared to nematode cultures grown in the presence of control fatty acids oleic acid methyl ester and linoleic acid methyl ester. C. elegans L4 larvae were added to NGM plates containing OP50 E. coli and one of the following methyl esters: oleic acid, linolcic acid, ricinoleic acid, vernolic acid or none. C. elegans L4 larvae growing on plates containing ricinoleic acid (FIG. 11) or vernolic acid (FIG. 12) methyl esters developed to mature adults more slowly than those on control plates containing oleic acid (FIG. 9) or linoleic acid (FIG. 10) and produced very few embryos (eggs).

[3] = system: everted hamster jejunal and ileal segments; conditions: cited from earlier work
[4] = system: Δ9 fatty acid desaturases; conditions: cited from earlier work
[5] = system: isolated intestinal epithelial cells; conditions: cited from earlier work
C. elegans [6] = assay: Rescue of C. elegans Δ12 FAT RNAi feeding phenotype by fatty acid methyl esters; format: in vivo; conditions: 3 mM added to the NGM media
Excerpt: RNAi by feeding: C. elegans can be grown on lawns of E. coli genetically engineered to produce double stranded RNA (dsRNA) designed to inhibit Δ12 FAT expression. Briefly, E. coli were transformed with a genomic fragment of a portion of the C. elegans Δ12 FAT gene sequence, specifically a fragment 651 nucleotides long, containing the entire first exon and terminating just before the conserved intron splice junction between the first exon and first intron. This construct encodes approximately the first 217 amino acids of the C. clegans Δ12 FAT gene. The 651 nucleotide genomic fragment was cloned into an E. coli expression vector between opposing T7 polymerase promoters. The clone was then transformed into a strain of E. coli that carries an IPTG-inducible T7 polymerase. As a control, E. coli was transformed with a gene encoding the Green Fluorescent Protein (GFP).
Feeding RNAi was initiated from C. elegans eggs or from C. elegans L4s.
The C. elegans Δ12 fatty acid desaturase (Fat2 protein) converts the mono-unsaturated oleic acid to the di-unsaturated fatty acid linoleic acid. The […] FAT RNAi prevents expression of the Δ12 fatty acid desaturase, which is predicted to cause a decrease in levels of linoleic acid in the nematode, leading to arrested development and death.

plants [7] = conditions: in vivo
[8] = 3 mM methyl ester on NGM plates with OP50 E. coli

With CCCCCC[C@@H](O)C/C=C\CCCCCCCC(=O)OC [ricinoleic acid methyl ester] the Toxicity to plants (plants [1]) was “do not appear to be toxic (or are very much less toxic)”, the “Embryos (eggs) produced” value (C. elegans [2]; [8]) was “very few” and the “Phenotype of young larvae from embryos that hatched” value (C. elegans [2]; [8]) was “severe arrested phenotypes and did not develop to adults”. For the same molecule, the “Development of L4 larvae to mature adults” value (C. elegans [2]; 3 mM methyl ester on NGM plates with OP50 E. coli, compared with oleic or linoleic acid control plates) was “more slowly”, the Nematicidal activity (C. elegans [2]; methyl esters of fatty acid analogs) was “nematicidal” and the “Effect on water and electrolyte absorption” value [3] was “ineffective”.

In the case of CCCCCCCCC1=C(CCCCCCCC(=O)O)C1 [Sterculic acid], the “Inhibition of Δ9 fatty acid desaturases” value [4] is given as “potent inhibitor”.

In the case of CCCCCC[C@@H](O)C/C=C\CCCCCCCC(=O)O [Ricinoleic acid, reference compound], the Cytotoxicity [5] is listed as “cytotoxic” and the “Effect on water and electrolyte absorption” value [3] is listed as “inhibitory effect”.

For CCCCCCCCC1=C(CCCCCCC(=O)O)C1 [malvalate], the “Inhibition of Δ9 fatty acid desaturases” value [4] is listed as “equally inhibitory”.

In the case of CCCCC/C=C\C/C=C\CCCCCCCC(=O)OC [linoleic acid methyl ester, reference compound], the “Lifecycle impairments of C. elegans cultures” value (C. elegans [2]) is reported as “no dramatic lifecycle impairments” and the “Rescue of the Δ12 FAT RNAi feeding phenotype” value (C. elegans [6]) is reported as “partial rescue”.

In the case of CCCCCC#CC/C=C\CCCCCCCC(=O)OC [crepenynic acid methyl ester], the Toxicity to plants (plants [7]) is reported as “do not appear to be toxic (or are very much less toxic)”.

With CCCCCCCC/C=C\CCCCCCCC(=O)OC [oleic acid methyl ester, reference compound] the “Lifecycle impairments of C. elegans cultures” value (C. elegans [2]) was “no dramatic lifecycle impairments” and the “Rescue of the Δ12 FAT RNAi feeding phenotype” value (C. elegans [6]) was “does not rescue”.

In the case of CCCCCC[C@@H](O)C/C=C/CCCCCCCC(=O)OC [ricinelaidic acid methyl ester], the Toxicity to plants (plants [1]) is reported as “do not appear to be toxic (or are very much less toxic)”.

From patent publication US7666642B2, “Nematode fatty acid desaturase-like sequences” (Divergence, Inc., priority 2001, dated 2010)
